Assay results: patent publication US20230090389A1 (Novartis AG, priority 2020, published 2023)

How the values were obtained:
[1] = test system: BRAF mutant human cell line xenograft HT29; assay: BRAF mutant human cell line xenograft HT29 in mice; format: in vivo; settings: clinically relevant doses
[2] = test system: six BRAFV600E CRC cell lines; assay: growth inhibition (CellTiter-Glo, 7 days) in six BRAF-mutant CRC cell lines; format: cell-based; settings: seven treatment days; dabrafenib 30 nM, Compound A 300 nM, compound B 1.1 μM
Method: Compound A: selective ATP-competitive ERK1 and ERK2 kinase inhibitor. Compound B: selective allosteric inhibitor of SHP2. The compounds were dissolved in 100% DMSO and stored at -20° C. as 10 mM stock solutions.
In this study, we used six BRAF-mutant colorectal cancer cell lines. We acquired all the cell lines from ATCC and cultured them at 37° C. 5% CO2 in the recommended media conditions: Colo205, LIM2405, SNUC5 and SW1417: RPMI 1640 (Amimed, #1-41F01-I) supplemented with 1% L-glutamine, 10 mM HEPES (Amimed, #5-31F00-H), 1% Na-pyruvate (Amimed, #5-60F00-H), 10% FCS. MDST8: DMEM high glucose (Amimed, #1-26F01-I) supplemented with 1% L-glutamine, 10% FCS. RKO: EMEM (Amimed, #1-31S01-1) supplemented with 1% L-glutamine, 10% FCS. […]
Seven days after treatment initiation, cell growth was determined using CellTiter-Glo® (Promega, #G7573), which measures the amount of ATP in the well. […] Cell lysis was induced for two minutes on an orbital shaker, the plates were incubated at room temperature for ten minutes, and luminescence was recorded.
To summarize the data of this study clearly, the percentage of growth inhibition versus DMSO (% GI) at single compound concentrations were reported. […] Raw data values were normalized to day 0, the time of treatment initiation, so that the % GI could be calculated. […]

Q: With `CNC[C@@H](NC(=O)c1ccc(-c2nc([C@H]3CC[C@H](O)[C@@H](F)C3)cnc2N)cc1F)c1cc(F)cc(Br)c1` [Compound A, 4-(3-amino-6-((1S,3 S,4S)-3-fluoro-4-hydroxycyclohexyl)pyrazin-2-yl)-N-((S)-1-(3-bromo-5-fluorophenyl)-2-(methylamino)ethyl)-2-fluorobenzamide] as the compound, how does the “anti-tumor response, T/C” value [1] read?
A: 54 % T/C

Q: How did the “cell growth inhibition (% GI vs DMSO)” value [2] turn out when `C[C@@H]1OCC2(CCN(c3cnc(Sc4ccnc(N)c4Cl)c(N)n3)CC2)[C@@H]1N` [Compound B, (3S,4S)-8-(6-amino-5-((2-amino-3-chloropyridin-4-yl)thio)pyrazin-2-yl)-3-methyl-2-oxa-8-azaspiro[4.5]decan-4-amine] was run?
A: no effect

Q: How did the “anti-tumor response, T/C” value [1] turn out when `CC(C)(C)c1nc(-c2cccc(NS(=O)(=O)c3c(F)cccc3F)c2F)c(-c2ccnc(N)n2)s1` [Dabrafenib, N-(3-(5-(2-aminopyrimidin-4-yl)-2-(tert-butyl)thiazol-4-yl)-2-fluorophenyl)-2,6-difluorobenzenesulfonamide] was run?
A: 59 % T/C

Q: With `CC(=O)Nc1cccc(-n2c(=O)n(C3CC3)c(=O)c3c(Nc4ccc(I)cc4F)n(C)c(=O)c(C)c32)c1` [Trametinib] as the compound, how does the “anti-tumor response, T/C” value [1] read?
A: 48 % T/C
